Laboratory results published in ChEMBL document CHEMBL4507295 (2021).

How the values were obtained:
[1] = biological target: Tyrosine-protein kinase Tec (Homo sapiens) (UniProt P42680); conditions: Compound concentration 1000.0 nM
[2] = biological target: Serine/threonine-protein kinase TBK1 (Homo sapiens) (UniProt Q9UHD2); conditions: Compound concentration 1000.0 nM
[3] = system: Epidermal growth factor receptor (Homo sapiens), P00533 [UNDEFINED MUTATION]; conditions: Compound concentration 1000.0 nM
[4] = biological target: Homeodomain-interacting protein kinase 4 (Homo sapiens) (UniProt Q8NE63); conditions: Compound concentration 1000.0 nM
[5] = biological target: Dual specificity tyrosine-phosphorylation-regulated kinase 1B (Homo sapiens) (UniProt Q9Y463); conditions: Compound concentration 1000.0 nM
Chain of Dual specificity tyrosine-phosphorylation-regulated kinase 1B (Homo sapiens) (Q9Y463 whole entry, looked up): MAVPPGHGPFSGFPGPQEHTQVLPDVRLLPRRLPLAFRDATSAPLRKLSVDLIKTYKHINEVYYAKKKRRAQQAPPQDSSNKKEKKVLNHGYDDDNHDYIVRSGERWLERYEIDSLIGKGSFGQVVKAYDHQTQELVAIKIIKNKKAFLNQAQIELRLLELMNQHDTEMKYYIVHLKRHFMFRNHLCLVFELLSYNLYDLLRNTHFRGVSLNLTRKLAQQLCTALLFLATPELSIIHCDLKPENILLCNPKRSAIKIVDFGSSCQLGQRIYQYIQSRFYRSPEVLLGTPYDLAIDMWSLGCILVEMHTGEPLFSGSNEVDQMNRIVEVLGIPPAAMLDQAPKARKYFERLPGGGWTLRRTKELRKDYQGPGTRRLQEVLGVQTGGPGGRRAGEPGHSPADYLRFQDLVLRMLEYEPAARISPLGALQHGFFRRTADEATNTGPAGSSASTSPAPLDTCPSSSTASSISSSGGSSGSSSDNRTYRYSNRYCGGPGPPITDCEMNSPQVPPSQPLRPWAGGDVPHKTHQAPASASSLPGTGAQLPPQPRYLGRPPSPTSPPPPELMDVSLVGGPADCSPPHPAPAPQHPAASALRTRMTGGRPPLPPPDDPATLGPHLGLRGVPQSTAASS

[6] = biological target: Serine/threonine-protein kinase SIK2 (Homo sapiens) (UniProt Q9H0K1); conditions: Compound concentration 1000.0 nM
[7] = biological target: STE20/SPS1-related proline-alanine-rich protein kinase (Homo sapiens) (UniProt Q9UEW8); conditions: Compound concentration 1000.0 nM
[8] = biological target: Casein kinase I isoform alpha (Homo sapiens) (UniProt P48729); conditions: Compound concentration 1000.0 nM
[9] = biological target: Serine/threonine-protein kinase Chk1 (Homo sapiens) (UniProt O14757); conditions: Compound concentration 1000.0 nM
[10] = biological target: Ephrin type-A receptor 4 (Homo sapiens) (UniProt P54764); conditions: Compound concentration 1000.0 nM
[11] = biological target: Fibroblast growth factor receptor 1 (Homo sapiens) (UniProt P11362); conditions: Compound concentration 1000.0 nM
[12] = biological target: Tyrosine-protein kinase receptor Tie-1 (Homo sapiens) (UniProt P35590); conditions: Compound concentration 1000.0 nM
[13] = biological target: Inhibitor of nuclear factor kappa-B kinase subunit alpha (Homo sapiens) (UniProt O15111); conditions: Compound concentration 1000.0 nM
[14] = biological target: Cyclin-dependent kinase 14 (Homo sapiens) (UniProt O94921); conditions: Compound concentration 1000.0 nM
Chain of Cyclin-dependent kinase 14 (Homo sapiens) (O94921 whole entry): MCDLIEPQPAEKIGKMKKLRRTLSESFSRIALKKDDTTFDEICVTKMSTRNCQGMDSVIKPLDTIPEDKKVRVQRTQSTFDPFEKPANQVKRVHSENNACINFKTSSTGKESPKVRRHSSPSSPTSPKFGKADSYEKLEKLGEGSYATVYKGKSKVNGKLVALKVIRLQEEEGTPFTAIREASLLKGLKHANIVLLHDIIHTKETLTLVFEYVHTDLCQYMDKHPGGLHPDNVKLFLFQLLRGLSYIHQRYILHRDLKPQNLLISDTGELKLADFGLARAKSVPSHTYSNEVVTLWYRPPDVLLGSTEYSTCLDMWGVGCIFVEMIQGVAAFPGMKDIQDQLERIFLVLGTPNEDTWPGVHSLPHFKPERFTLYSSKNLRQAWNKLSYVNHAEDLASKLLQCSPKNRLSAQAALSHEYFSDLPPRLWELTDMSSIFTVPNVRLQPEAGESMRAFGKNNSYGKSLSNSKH

[15] = biological target: Calcium/calmodulin-dependent protein kinase type 1G (Homo sapiens) (UniProt Q96NX5); conditions: Compound concentration 1000.0 nM
[16] = system: Receptor-type tyrosine-protein kinase FLT3 (Homo sapiens), P36888 [UNDEFINED MUTATION]; conditions: Compound concentration 1000.0 nM
[17] = biological target: Serine/threonine-protein kinase D2 (Homo sapiens) (UniProt Q9BZL6); conditions: Compound concentration 1000.0 nM
[18] = biological target: Serine/threonine-protein kinase 38 (Homo sapiens) (UniProt Q15208); conditions: Compound concentration 1000.0 nM
Chain of Serine/threonine-protein kinase 38 (Homo sapiens) (Q15208 2-465 limits assumed): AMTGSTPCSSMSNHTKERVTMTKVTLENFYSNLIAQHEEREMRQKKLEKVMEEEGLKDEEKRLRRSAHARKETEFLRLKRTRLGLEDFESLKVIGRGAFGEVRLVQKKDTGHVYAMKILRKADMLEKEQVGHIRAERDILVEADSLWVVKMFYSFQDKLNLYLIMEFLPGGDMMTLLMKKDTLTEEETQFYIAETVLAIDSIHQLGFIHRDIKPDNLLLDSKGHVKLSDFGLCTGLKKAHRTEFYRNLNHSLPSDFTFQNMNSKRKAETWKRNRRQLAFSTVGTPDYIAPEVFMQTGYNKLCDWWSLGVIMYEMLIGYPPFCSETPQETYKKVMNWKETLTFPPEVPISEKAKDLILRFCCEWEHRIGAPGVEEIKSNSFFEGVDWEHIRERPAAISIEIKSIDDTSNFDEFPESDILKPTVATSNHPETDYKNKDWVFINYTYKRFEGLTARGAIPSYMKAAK

[19] = biological target: Serine/threonine-protein kinase 26 (Homo sapiens) (UniProt Q9P289); conditions: Compound concentration 1000.0 nM
[20] = biological target: Ephrin type-A receptor 8 (Homo sapiens) (UniProt P29322); conditions: Compound concentration 1000.0 nM
[21] = biological target: Protein kinase C theta type (Homo sapiens) (UniProt Q04759); conditions: Compound concentration 1000.0 nM
Chain of Protein kinase C theta type (Homo sapiens) (Q04759 whole entry, looked up): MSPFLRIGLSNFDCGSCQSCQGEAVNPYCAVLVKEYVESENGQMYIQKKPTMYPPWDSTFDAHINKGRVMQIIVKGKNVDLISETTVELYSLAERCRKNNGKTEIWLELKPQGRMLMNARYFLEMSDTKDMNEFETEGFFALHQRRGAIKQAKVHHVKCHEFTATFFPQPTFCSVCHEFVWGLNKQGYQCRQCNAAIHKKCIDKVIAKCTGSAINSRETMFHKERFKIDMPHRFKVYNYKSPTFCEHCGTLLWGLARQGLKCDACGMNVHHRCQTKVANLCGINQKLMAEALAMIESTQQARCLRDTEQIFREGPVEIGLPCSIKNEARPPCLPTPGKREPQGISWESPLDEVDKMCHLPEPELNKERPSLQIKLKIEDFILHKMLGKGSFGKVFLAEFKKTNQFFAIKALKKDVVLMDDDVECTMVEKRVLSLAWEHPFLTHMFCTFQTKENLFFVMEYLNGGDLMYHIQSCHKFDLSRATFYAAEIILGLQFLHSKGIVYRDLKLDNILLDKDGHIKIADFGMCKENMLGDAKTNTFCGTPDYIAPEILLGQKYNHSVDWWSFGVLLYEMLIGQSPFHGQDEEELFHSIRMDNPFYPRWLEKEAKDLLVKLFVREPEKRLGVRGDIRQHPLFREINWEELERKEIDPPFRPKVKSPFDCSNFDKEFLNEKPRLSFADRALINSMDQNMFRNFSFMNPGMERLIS

[22] = biological target: Serine/threonine-protein kinase TAO3 (Homo sapiens) (UniProt Q9H2K8); conditions: Compound concentration 1000.0 nM
[23] = biological target: Serine/threonine-protein kinase LATS1 (Homo sapiens) (UniProt O95835); conditions: Compound concentration 1000.0 nM
[24] = biological target: Serine/threonine-protein kinase 33 (Homo sapiens) (UniProt Q9BYT3); conditions: Compound concentration 1000.0 nM
[25] = biological target: Serine/threonine-protein kinase pim-3 (Homo sapiens) (UniProt Q86V86); conditions: Compound concentration 1000.0 nM
[26] = biological target: Cyclin-dependent kinase 8 (Homo sapiens) (UniProt P49336); conditions: Compound concentration 1000.0 nM
[27] = biological target: MAP kinase-activated protein kinase 2 (Homo sapiens) (UniProt P49137); conditions: Compound concentration 1000.0 nM
[28] = system: Serine/threonine-protein kinase B-raf (Homo sapiens), P15056 [V600E]; conditions: Compound concentration 1000.0 nM
[29] = biological target: GABA-A receptor; anion channel (Rattus norvegicus) (UniProt O09028+P15431+P18506+P18508+P19969+P20236+P23574+P23576+P28471+P28473+P30191+P62813+P63079+P63138+Q91ZM7+Q9ES14); conditions: Compound concentration 10.0 uM
[30] = biological target: Serine/threonine-protein kinase SIK1 (Homo sapiens) (UniProt P57059); conditions: Compound concentration 1000.0 nM
[31] = biological target: cGMP-dependent protein kinase 1 (Homo sapiens) (UniProt Q13976); conditions: Compound concentration 1000.0 nM
Chain of cGMP-dependent protein kinase 1 (Homo sapiens) (Q13976 whole entry): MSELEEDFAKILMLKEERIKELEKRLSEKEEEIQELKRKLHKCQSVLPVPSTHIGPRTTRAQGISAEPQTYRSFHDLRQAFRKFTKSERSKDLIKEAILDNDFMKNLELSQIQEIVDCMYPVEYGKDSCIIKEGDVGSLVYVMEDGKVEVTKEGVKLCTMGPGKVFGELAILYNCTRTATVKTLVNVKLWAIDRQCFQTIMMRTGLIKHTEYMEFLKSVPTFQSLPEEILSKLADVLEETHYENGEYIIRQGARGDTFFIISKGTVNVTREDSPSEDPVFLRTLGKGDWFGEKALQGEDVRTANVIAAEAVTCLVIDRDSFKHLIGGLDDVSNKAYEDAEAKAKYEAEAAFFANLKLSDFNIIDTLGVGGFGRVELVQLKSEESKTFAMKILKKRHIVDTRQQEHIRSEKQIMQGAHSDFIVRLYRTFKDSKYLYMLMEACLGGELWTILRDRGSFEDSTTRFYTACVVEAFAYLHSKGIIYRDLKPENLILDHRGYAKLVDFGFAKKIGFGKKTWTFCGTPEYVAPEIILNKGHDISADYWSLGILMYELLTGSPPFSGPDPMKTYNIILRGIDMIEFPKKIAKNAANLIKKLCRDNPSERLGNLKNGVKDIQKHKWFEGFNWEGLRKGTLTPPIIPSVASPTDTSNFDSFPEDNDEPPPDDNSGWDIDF

[32] = system: Tyrosine-protein kinase ABL1 (Homo sapiens), P00519 [F317I]; conditions: Compound concentration 1000.0 nM
[33] = biological target: Histamine H2 receptor (Homo sapiens) (UniProt P25021); conditions: Compound concentration 10.0 uM
Chain of Histamine H2 receptor (Homo sapiens) (P25021 whole entry): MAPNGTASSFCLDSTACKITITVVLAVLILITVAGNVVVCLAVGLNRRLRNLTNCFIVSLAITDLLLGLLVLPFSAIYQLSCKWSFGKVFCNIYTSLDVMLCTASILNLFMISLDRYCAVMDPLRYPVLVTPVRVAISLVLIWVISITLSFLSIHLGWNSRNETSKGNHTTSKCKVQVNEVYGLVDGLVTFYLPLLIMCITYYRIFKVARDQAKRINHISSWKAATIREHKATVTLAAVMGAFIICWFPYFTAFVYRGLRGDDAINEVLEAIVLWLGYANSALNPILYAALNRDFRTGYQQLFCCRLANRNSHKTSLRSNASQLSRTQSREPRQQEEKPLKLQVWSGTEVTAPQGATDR

[34] = biological target: Serine/threonine-protein kinase RIO1 (Homo sapiens) (UniProt Q9BRS2); conditions: Compound concentration 1000.0 nM
[35] = biological target: SRSF protein kinase 1 (Homo sapiens) (UniProt Q96SB4); conditions: Compound concentration 1000.0 nM
[36] = biological target: Ribosomal protein S6 kinase alpha-1 (Homo sapiens) (UniProt Q15418); conditions: Compound concentration 1000.0 nM
[37] = biological target: Atypical kinase COQ8A, mitochondrial (Homo sapiens) (UniProt Q8NI60); conditions: Compound concentration 1000.0 nM
[38] = biological target: Vascular endothelial growth factor receptor 1 (Homo sapiens) (UniProt P17948); conditions: Compound concentration 1000.0 nM
[39] = biological target: Serine/threonine-protein kinase Sgk1 (Homo sapiens) (UniProt O00141); conditions: Compound concentration 1000.0 nM
[40] = biological target: Dual specificity tyrosine-phosphorylation-regulated kinase 1A (Homo sapiens) (UniProt Q13627); conditions: Compound concentration 1000.0 nM
[41] = biological target: Tyrosine-protein kinase Srms (Homo sapiens) (UniProt Q9H3Y6); conditions: Compound concentration 1000.0 nM
[42] = biological target: cGMP-dependent protein kinase 2 (Homo sapiens) (UniProt Q13237); conditions: Compound concentration 1000.0 nM
Chain of cGMP-dependent protein kinase 2 (Homo sapiens) (Q13237 whole entry): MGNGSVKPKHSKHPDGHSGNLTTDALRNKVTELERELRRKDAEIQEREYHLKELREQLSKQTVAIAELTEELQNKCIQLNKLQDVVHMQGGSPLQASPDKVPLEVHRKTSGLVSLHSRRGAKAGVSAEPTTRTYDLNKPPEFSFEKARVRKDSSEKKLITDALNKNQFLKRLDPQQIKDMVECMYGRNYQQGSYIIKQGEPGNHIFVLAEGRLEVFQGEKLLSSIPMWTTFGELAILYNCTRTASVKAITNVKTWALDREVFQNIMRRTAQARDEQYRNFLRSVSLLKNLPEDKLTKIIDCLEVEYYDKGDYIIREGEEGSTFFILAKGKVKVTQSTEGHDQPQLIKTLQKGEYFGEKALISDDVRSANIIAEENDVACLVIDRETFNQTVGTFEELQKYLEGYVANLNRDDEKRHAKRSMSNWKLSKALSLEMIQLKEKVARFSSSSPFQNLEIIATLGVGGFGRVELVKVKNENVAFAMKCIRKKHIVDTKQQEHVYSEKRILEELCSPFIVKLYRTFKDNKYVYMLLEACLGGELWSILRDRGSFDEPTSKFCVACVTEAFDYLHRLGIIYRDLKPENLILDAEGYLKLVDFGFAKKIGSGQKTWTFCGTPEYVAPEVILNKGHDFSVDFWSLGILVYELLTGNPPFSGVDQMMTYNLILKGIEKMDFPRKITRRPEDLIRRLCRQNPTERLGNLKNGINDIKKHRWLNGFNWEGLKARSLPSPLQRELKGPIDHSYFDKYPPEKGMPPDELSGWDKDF

[43] = biological target: Angiopoietin-1 receptor (Homo sapiens) (UniProt Q02763); conditions: Compound concentration 1000.0 nM
[44] = biological target: Discoidin domain-containing receptor 2 (Homo sapiens) (UniProt Q16832); conditions: Compound concentration 1000.0 nM

Chain of Serine/threonine-protein kinase TBK1 (Homo sapiens) (Q9UHD2 whole entry): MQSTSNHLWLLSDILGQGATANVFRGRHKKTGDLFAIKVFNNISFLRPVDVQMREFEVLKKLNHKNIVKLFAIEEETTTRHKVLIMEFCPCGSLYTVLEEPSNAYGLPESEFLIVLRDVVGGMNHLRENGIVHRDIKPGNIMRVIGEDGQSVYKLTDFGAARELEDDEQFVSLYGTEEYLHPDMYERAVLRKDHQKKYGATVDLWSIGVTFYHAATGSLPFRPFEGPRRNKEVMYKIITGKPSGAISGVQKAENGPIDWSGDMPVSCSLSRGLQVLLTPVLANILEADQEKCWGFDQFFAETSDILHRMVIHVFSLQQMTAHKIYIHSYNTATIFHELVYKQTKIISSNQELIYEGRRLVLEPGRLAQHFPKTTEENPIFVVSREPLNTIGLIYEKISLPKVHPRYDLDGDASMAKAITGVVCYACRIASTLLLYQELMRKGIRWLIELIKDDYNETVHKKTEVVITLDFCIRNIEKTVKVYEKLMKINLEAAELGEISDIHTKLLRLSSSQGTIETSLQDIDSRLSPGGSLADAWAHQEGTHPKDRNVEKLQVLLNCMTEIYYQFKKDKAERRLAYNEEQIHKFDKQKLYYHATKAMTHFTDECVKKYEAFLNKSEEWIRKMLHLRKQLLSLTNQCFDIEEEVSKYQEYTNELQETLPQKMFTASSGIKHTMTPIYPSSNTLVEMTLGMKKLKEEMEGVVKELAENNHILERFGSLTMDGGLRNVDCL

N#CC1(c2ccccn2)CCN(Cc2cc(C(=O)O)c(=O)n3ccccc23)CC1 [MSD-M1PAM]
inactive: residual activity [1] 100% | residual activity [2] 98% | residual activity [3] 80% | residual activity [4] 95% | residual activity [5] 98% | residual activity [6] 100% | residual activity [7] 56% | residual activity [8] 100% | residual activity [9] 100% | residual activity [10] 79% | residual activity [11] 98% | residual activity [12] 100% | residual activity [13] 100% | residual activity [14] 100% | residual activity [15] 100% | residual activity [16] 100% | residual activity [17] 99% | residual activity [18] 93% | residual activity [19] 100% | residual activity [20] 100% | residual activity [21] 96% | residual activity [22] 78% | residual activity [23] 100% | residual activity [24] 56% | residual activity [25] 100% | residual activity [26] 100% | residual activity [27] 75% | residual activity [28] 100% | inhibition [29] 8.92% | residual activity [30] 92% | residual activity [31] 98% | residual activity [32] 65% | inhibition [33] 11.7% | residual activity [34] 88% | residual activity [35] 100% | residual activity [36] 94% | residual activity [37] 100% | residual activity [38] 92% | residual activity [39] 87% | residual activity [40] 97% | residual activity [41] 93% | residual activity [42] 95% | residual activity [43] 95% | residual activity [44] 100%

N#CC1(c2ccccn2)CCN(Cc2cc(C(=O)N3CCCC3)c(=O)n3ccccc23)CC1
inactive: residual activity [1] 100% | residual activity [2] 99% | residual activity [3] 94% | residual activity [4] 67% | residual activity [5] 53% | residual activity [6] 100% | residual activity [7] 75% | residual activity [8] 79% | residual activity [9] 90% | residual activity [10] 89% | residual activity [11] 93% | residual activity [12] 98% | residual activity [13] 94% | residual activity [14] 100% | residual activity [15] 100% | residual activity [16] 90% | residual activity [17] 85% | residual activity [18] 64% | residual activity [19] 100% | residual activity [20] 100% | residual activity [21] 100% | residual activity [22] 100% | residual activity [23] 100% | residual activity [24] 62% | residual activity [25] 99% | residual activity [26] 100% | residual activity [27] 84% | residual activity [28] 99% | inhibition [29] 21.8% | residual activity [30] 100% | residual activity [31] 88% | residual activity [32] 87% | inhibition [33] 3.1% | residual activity [34] 95% | residual activity [35] 85% | residual activity [36] 100% | residual activity [37] 85% | residual activity [38] 100% | residual activity [39] 100% | residual activity [40] 94% | residual activity [41] 100% | residual activity [42] 100% | residual activity [43] 85% | residual activity [44] 100%
